Results on eight compounds are retold here after patent US5807745A, “Method of inhibiting PADGEM-mediated or ELAM-1-mediated leukocyte adhesion using an inhibitor comprising a Le^x core component” (New England Medical Center Hospitals, Inc., priority 1995, dated 1998).

Experiment [1] deals with PADGEM-mediated binding of HL60 cells to CHO-PADGEM transfectants. The experiment can be described thus: CHO-PADGEM adhesion assay with tritiated HL60 cells. The class given is cell-based. Particulars: done once only. The text has this: (§1) Chinese hamster ovary cells (CHO-DUKX) were transfected with cDNA encoding ELAM or PADGEM to make CHO-ELAM and CHO-PADGEM cells. Each of the following cell types, Chinese hamster ovary cells-DUKX (CHO-DUKX), Chinese hamster ovary cells transfected with cDNA for ELAM (CHO-ELAM) and Chinese hamster ovary cells transfected with cDNA for PADGEM (CHO-PADGEM), were separately plated at a density of 6×10^4 cells per milliliter of medium into Costar 48 well culture plates. On the following day, HL60 cells in culture were sedimented by centrifugation and resuspended in medium (RPMI, 10% fetal calf serum) to a density of 5×10^5 cells/ml. Tritiated thymidine (5 μCi per milliliter) was added to the HL60 cell suspension and the cells were grown overnight. The following day the HL60 cells were washed thrice in serum free RPMI and resuspended in a volume of 5 mls of RPMI. After assuring that the free tritium in the cell suspension is no more than 10% of the cell associated tritium, the cell count of the cell suspension was established and the cell density was adjusted to 1×10^6 cells per milliliter.
(§2) To perform the assay medium was aspirated from the CHO cells, CHO-ELAM cells and CHO-PADGEM cells. The wells containing these cells were rinsed with 1 ml of serum free RPMI. HL60 cells were preincubated for 10 minutes with the test sugar at the concentrations indicated. Aliquots of these HL60 cells (100,000 to 300,000 cells) were then added to individual wells containing CHO cells of the various types and the two cell populations incubated together for 30 minutes at room temperature. Unbound HL60 cells were removed by aspiration and the wells were washed thrice with serum free RPMI. The adherent CHO cells and any bound HL60 cells were detached from the surface of the wells with 250 μl of phosphate buffered saline containing 1 mM EDTA. An aliquot of the detached cells (200 μl) was analyzed for tritium content in a β-scintillation counter. The level of nonspecific binding of tritiated HL60 cells was taken as the level of binding seen in the wells containing the CHO-DUKX cells (parent cell line of CHO-PADGEM and CHO-ELAM transfectants). This value was subtracted from the level of tritiated HL60 cells bound in wells containing CHO-ELAM or CHO-PADGEM cells. The decrease in binding induced by the presence of the sugar was determined by comparing the level of binding of HL60 cells in the presence of the sugar to that observed in its absence.
(§3) Additional sugars were tested for inhibition of PADGEM- and ELAM-mediated interactions using the CHO-PADGEM and CHO-ELAM adhesion assay described in Example 2. The following sugars were tested at a single concentration: […]

Experiment [2] relates to ELAM-mediated binding of HL60 cells to CHO-ELAM cells. The experiment can be described thus: CHO-ELAM adhesion assay with tritiated HL60 cells. The class given is cell-based. Particulars: Homo sapiens, HL-60, done once only, read-out: decrease of ELAM-mediated binding; for inhibition at 250 µM: 0.25 mM; for inhibition at 500 µM: 0.5 mM.
From the text: as §1, §2, §3

Experiment [3] relates to adherence of activated platelets to neutrophils (PADGEM-mediated). As to the kind of experiment: Phase-contrast cell adhesion assay: thrombin-activated platelets with neutrophils. Conditions: LNF isomers; direct cell adhesion assay; FIG. 6. The class given is cell-based, human. On the procedure: Platelets were isolated by gel filtration from fresh anticoagulated blood obtained from normal human donors (Hsu-Lin et al., J. Biol. Chem., 259: 9121-9126 (1984)). Activated platelets were prepared by incubating cells without stirring for 20 minutes at 22° C. with thrombin at a final concentration of 0.25 U/ml. Fresh platelets were used in cell adhesion assays within 30 minutes of preparation.
Neutrophils were prepared by the method of English and Anderson (J. Immunol. Method, 5: 249-252 (1974)). The neutrophil preparations were greater than 95% pure by light microscopy. Monocytes were prepared by washing the mono-nuclear leukocyte fraction twice with human serum-5 mM EDTA and incubating the cells in RPMI 1640--10% fetal calf serum in sterile […] dishes for 2 hours at 37° C. The dishes were washed three times with PBS at 37° C. to remove nonadherent cells. PBS at 0° C. was added, and the cells were incubated at 4° C. for 1 hour. Adherent cells were gently detached with a rubber policeman, washed in PBS, and resuspended in RPMI 1640--1% fetal calf serum. Lymphocytes were obtained by washing the nonadherent cells with PBS and resuspending these cells in RPMI 1640--1% fetal calf serum. The purity of these preparations was established to be greater than 90% by light microscopy using Wright esterase and nonspecific esterase stains.
Twenty microliters of platelet suspension (2×10^8 /ml) was mixed with 20 μl of cell suspension (2×10^6 /ml) and incubated for 20 minutes at 22° C. in a microfuge tube. An aliquot of the cell suspension was then in a Neubauer chamber and evaluated by light microscropy using an Olympus model BH-2 microscope. Three samples from each assay were evaluated by counting 200 cells and scoring the percentage of cells with two or more adherent platelets (Jungi et al., Blood 67: 629-636 (1986)). Antibody inhibition studies were performed by preincubating cells (20 μl; 3×10^6 /ml) with 20 μl of antibody solution for 20 minutes at 22° C. Subsequently, 20 μl of platelet suspension was added, and the mixture was incubated for 20 minutes at 22° C. Samples were analyzed as above.
To identify the PADGEM recognition site on leukocytes that mediates the binding of activated platelets, monoclonal antibodies directed at various antigens on the surface of monocytes and neutrophils were tested for their ability to inhibit the interaction of these cells with activated platelets, using the phase-contrast cell adhesion assay described in Example 2 (FIG. 1 and FIG. 2). The antibodies were raised against various leukocytes and myeloid cell lines and are directed at leukocyte antigens. […] The percentage of cells displaying two or more adherent platelets was determined as described in Example 2.

Experiment [4] relates to binding of HL60 cells to COS/PADGEM cells. As to the kind of experiment: COS cell-PADGEM adhesion assay with labelled HL60 cells. The class given is cell-based, human. Conditions: for inhibition of binding of radiolabeled HL60 cells to COS/PADGEM cells: 111In activity, FIG. 7; for inhibition of binding of fluorescently labeled HL60 cells to COS/PADGEM cells: scored morphologically in a blind assay. On the procedure: COS cells (1×10^5) were transfected with 40 μg of the resulting PADGEM expression vector by calcium phosphate precipitation. Coverslips (12×12 mm) were added to each culture. After 48 hours of growth in DMEM--10% fetal calf serum, the COS cells were confluent.
HL60 cells (1×10^7), maintained in culture, were washed and resuspended in 0.5 ml of serum-free RPMI 1640. The cells were labeled with 270 μCi of ^111 In oxine (Callow et al., Arch. Surg., 117: 1447-1455 (1982)) and 10 μg of bis-carboxyethyl-carboxyfluorescein (Kolber et al., J. Immunol. Meth., 108: 255-264 (1988)) by incubation at 37° C. for 30 minutes. After washing with RPMI 1640--1% bovine serum albumin, the cells (1×10^6) were incubated with the coverslips containing confluent COS cell transfectants, in the presence or absence of LNF isomers, for 20 minutes at 37° C. The coverslips were washed with RPMI 1640, and duplicate coverslips were assayed for ^111 In activity. Alternatively, samples were evaluated for HL60 cell adherence by fluorescence and phase-contrast microscopy using a Zeiss Axioscope microscope in a blind assay. Inhibition of the binding of COS/PADGEM cells to U937 cells by the antibody 80H5 was performed in experiments identical to the procedure described above.
The results of a COS cell-PADGEM adhesion assay, in which the binding of ^111 In and bis-carboxyethyl-carboxyfluorescein-lableled HL60 cells to COS/PADGEM cells was monitored by assaying ^111 In activity (Example 2), are shown in FIG. 7. […] The inhibitory effect of LNF II was more apparent when the LNF to PADGEM ratio was high. […] It is possible that minor contamination of the LNF II preparation with LNF III can account for the inhibitory activity observed.
The inhibitory effects of LNF I, II, and III on the interaction of HL60 cells and COS/PADGEM was also studied morphologically in a blind assay. In these experiments, the binding of fluorescently labeled HL60 cells to COS/PADGEM cells was scored (Example 2).

A further experiment relates to PADGEM. Conditions: literature reports; cited from earlier work.

For `CC(=O)NC1C(O)CC(OC2C(O)C(CO)OC(OC3C(CO)OC(O)C(O)C3OC3OC(C)C(O)C(O)C3O)C2O)(C(=O)O)OC1C(O)C(O)CO` (stereo not shown) [3'-sialyl-3-fucosyllactose, NeuAcα2-3Galβ1-4[Fucα1-3]Glc], the “inhibition of PADGEM-mediated binding of HL60 cells to CHO-PADGEM transfectants” value (from here on “inhibition … to CHO-PADGEM transfectants”) in experiment [1] (0.25 mM) was “none of the four sugars tested appreciably inhibited”. Also, in experiment [2], the inhibition at 250 µM was 50 to 60%.
As to `CC(=O)NC1C(O)CC(OC2C(O)C(CO)OC(OC3C(CO)OC(O)C(O)C3O)C2O)(C(=O)O)OC1C(O)C(O)CO` (stereo not shown) [3'-sialyllactose, NeuAcα2-3Galβ1-4Glc], the “inhibition … to CHO-PADGEM transfectants” value in experiment [1] (0.5 mM) is “none of the four sugars tested appreciably inhibited”. Moreover, the inhibition at 500 µM in experiment [2] is ≤ 10%.
`C[C@@H]1O[C@@H](O[C@H]2[C@H](O[C@@H]3O[C@H](CO)[C@H](O)[C@H](O)[C@H]3O)[C@@H](CO)OC(O)[C@@H]2O)[C@@H](O)[C@H](O)[C@@H]1O` (stereo partly shown) [3-fucosyllactose, Galβ1-4[Fucα1-3]Glc]: the “inhibition … to CHO-PADGEM transfectants” value in experiment [1] (0.25 mM) was “none of the four sugars tested appreciably inhibited”. In experiment [2], the inhibition at 250 µM was ≤ 10%.
For `CC(=O)NC1C(O)CC(OCC2OC(OC3C(CO)OC(O)C(O)C3O)C(O)C(O)C2O)(C(=O)O)OC1C(O)C(O)CO` (stereo not shown) [6'-sialyllactose, NeuAcα2-6Galβ1-4Glc], the “inhibition … to CHO-PADGEM transfectants” value in experiment [1] (0.5 mM) is listed as “none of the four sugars tested appreciably inhibited”. Besides, the inhibition at 500 µM in experiment [2] was ≤ 10%.
For `CC(=O)N[C@H]1[C@H](O[C@H]2[C@@H](O)[C@@H](CO)O[C@@H](O[C@H]3[C@H](O)[C@@H](O)C(O)O[C@@H]3CO)[C@@H]2O)O[C@H](CO)[C@@H](O)[C@@H]1O[C@@H]1O[C@H](CO)[C@H](O)[C@H](O)[C@H]1O[C@@H]1O[C@@H](C)[C@@H](O)[C@@H](O)[C@@H]1O` (stereo partly shown) [LNF I, Fucα1-2Galβ1-3GlcNAcβ1-3Galβ1-4Glc], the “inhibitory activity on adherence of activated platelets to neutrophils” value in experiment [3] is reported as “neither LNF I (open squares) nor LNF II (closed circles) had inhibitory activity”. For the same compound, in experiment [4], the “inhibition of binding of radiolabeled HL60 cells to COS/PADGEM cells” value is “did not inhibit” and the “inhibition of binding of fluorescently labeled HL60 cells to COS/PADGEM cells” value is recorded as “no inhibitory activity”.
As for `CC(=O)N[C@H]1[C@H](O[C@H]2[C@@H](O)[C@@H](CO)O[C@@H](O[C@H]3[C@H](O)[C@@H](O)C(O)O[C@@H]3CO)[C@@H]2O)O[C@H](CO)[C@@H](O[C@@H]2O[C@@H](C)[C@@H](O)[C@@H](O)[C@@H]2O)[C@@H]1O[C@@H]1O[C@H](CO)[C@H](O)[C@H](O)[C@H]1O` (stereo partly shown) [LNF II, Galβ1-3(Fucα1-4)GlcNAcβ1-3Galβ1-4Glc], the “inhibitory activity on adherence of activated platelets to neutrophils” value in experiment [3] was “neither LNF I (open squares) nor LNF II (closed circles) had inhibitory activity”. Further, in experiment [4], the “inhibition of binding of radiolabeled HL60 cells to COS/PADGEM cells” value is “only a small inhibitory effect” and the “inhibition of binding of fluorescently labeled HL60 cells to COS/PADGEM cells” value is “no inhibitory activity”.
Consider fucoidin, for which, in the experiment on PADGEM, the “inhibition of PADGEM-mediated binding of activated platelets to leukocytes” value is “inhibited”.
As for heparin, the “inhibition of PADGEM-mediated binding of activated platelets to leukocytes” value with PADGEM was “inhibited”.
